# Test system: Male Sprague Dawley rats
# Test: Rightward Shift of Icilin Dose Effect Curve in Rats
# Type: in vivo
# Conditions: Rattus norvegicus, ip; icilin i.p., wet-dog shakes, no pretreatment; read-out: Icilin ED50, mg/kg, i.p., no pretreatment
# Procedure: Male Sprague Dawley rats (200-400 g, Charles River Labs, n=6-9/treatment) were administered icilin in a suitable vehicle (e.g. PEG-400, 10% Solutol) at 0.1-30 mg/kg, i.p. Spontaneous “wet-dog” shakes were counted 10-20 minutes post-icilin in order to generate a icilin dose-effect curve. A compound of the present invention was administered orally in hydroxypropyl-β-cyclodextrin 60 minutes before icilin challenge to assess the compound's ability to inhibit spontaneous “wet-dog” shakes (WDS) produced by a range of icilin doses. The ED50 of the icilin dose-effect curve generated in the presence of TRPM8 antagonist may be compared to that generated in the presence of vehicle to determine the magnitude of rightward shift as shown below in Table 7.
smiles,measurement,value
"O=C1NC(c2cccc([N+](=O)[O-])c2)=CCN1c1ccccc1O [Icilin, reference compound]",ED50,0.75 mg/kg
